Measured values as given in ChEMBL document CHEMBL1201862, “PubChem BioAssay data set” (2004).
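Cells were grown in 96-well plates and exposed to each compound for 48 hours at five concentrations; endpoints were interpolated linearly between bracketing concentrations, or set to the highest concentration if not reached. Here, GI50 denotes the concentration required for 50% inhibition of growth.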 Active and inactive are the calls of the source. No stated cut-off is given here; in the data, active = GI50 up to about 1.1 µM and inactive = higher.

Columns and labels:
Test in all cases: growth of human tumour cells (NCI), 48 h
MCF7 = system: MCF7
KM12 = system: KM12
HOP-62 = system: HOP-62
SK-OV-3 = system: SK-OV-3
CCRF-CEM = system: CCRF-CEM
NCI-H23 = system: NCI-H23
NCI-H460 = system: NCI-H460
COLO 205 = system: COLO 205
Malme-3M = system: Malme-3M
LOX IMVI = system: LOX IMVI
Hs-578T = system: Hs-578T
SF-539 = system: SF-539
EKVX = system: EKVX
CAKI-1 = system: CAKI-1
RXF 393 = system: RXF 393
TK-10 = system: TK-10
HT-29 = system: HT-29
OVCAR-5 = system: OVCAR-5
K562 = system: K562
HOP-92 = system: HOP-92

SMILES	GI50 (MCF7)	GI50 (KM12)	GI50 (HOP-62)	GI50 (SK-OV-3)	GI50 (CCRF-CEM)	GI50 (NCI-H23)	GI50 (NCI-H460)	GI50 (COLO 205)	GI50 (Malme-3M)	GI50 (LOX IMVI)	GI50 (Hs-578T)	GI50 (SF-539)	GI50 (EKVX)	GI50 (CAKI-1)	GI50 (RXF 393)	GI50 (TK-10)	GI50 (HT-29)	GI50 (OVCAR-5)	GI50 (K562)	GI50 (HOP-92)
COc1ccc(OC)c(/N=C/c2cc(OC)c(OC)c(OC)c2)c1	62.4 µM (inactive)	> 80 µM (inactive)	> 100 µM (inactive)	> 77.8 µM (inactive)	22.9 µM (inactive)	> 100 µM (inactive)	> 100 µM (inactive)	> 100 µM (inactive)	> 100 µM (inactive)	> 100 µM (inactive)	> 100 µM (inactive)	> 100 µM (inactive)	> 52.6 µM (inactive)	80.5 µM (inactive)	> 100 µM (inactive)	> 100 µM (inactive)	> 100 µM (inactive)	> 100 µM (inactive)	> 68.1 µM (inactive)	
CC(C)(C)[Si](C)(C)OCC1OC(n2ccc(=O)[nH]c2=O)C(O[Si](C)(C)C(C)(C)C)[C@@]12O[C@H]2C(N)=O (stereo partly specified)	3.97 µM (inactive)	7.67 µM (inactive)	13.8 µM (inactive)	19 µM (inactive)	> 10 µM (inactive)	12.2 µM (inactive)	5.28 µM (inactive)	7.64 µM (inactive)		3.4 µM (inactive)		3.05 µM (inactive)	16.2 µM (inactive)	11.6 µM (inactive)		20.2 µM (inactive)	3.39 µM (inactive)	11.8 µM (inactive)	7.38 µM (inactive)	> 10 µM (inactive)
N#CC12CNCC1CN=N2 (stereo unspecified)	> 100 µM (inactive)	> 100 µM (inactive)	> 100 µM (inactive)		> 100 µM (inactive)	> 100 µM (inactive)	> 100 µM (inactive)	> 100 µM (inactive)	> 100 µM (inactive)	> 100 µM (inactive)			> 100 µM (inactive)	> 100 µM (inactive)	> 100 µM (inactive)	> 100 µM (inactive)	> 100 µM (inactive)	> 100 µM (inactive)	> 100 µM (inactive)	> 100 µM (inactive)
O=C1OC2C(O)C(=O)OC2C1O (stereo unspecified)	> 100 µM (inactive)	> 100 µM (inactive)	> 100 µM (inactive)	> 100 µM (inactive)	> 100 µM (inactive)	> 100 µM (inactive)	> 100 µM (inactive)	> 100 µM (inactive)	> 100 µM (inactive)	> 100 µM (inactive)		> 100 µM (inactive)	> 100 µM (inactive)	> 100 µM (inactive)	> 100 µM (inactive)		> 100 µM (inactive)	> 100 µM (inactive)	> 100 µM (inactive)	> 100 µM (inactive)
O=C1CC[C@@]2(O)[C@H]3Cc4ccc(-c5ccccc5)c5c4[C@@]2(CCN3CC2CC2)[C@H]1O5	18.2 µM (inactive)	18.9 µM (inactive)	22.4 µM (inactive)	23.9 µM (inactive)	24.4 µM (inactive)	24.1 µM (inactive)	17.9 µM (inactive)	17.7 µM (inactive)	15.5 µM (inactive)	16 µM (inactive)		16.8 µM (inactive)	19.6 µM (inactive)	18.3 µM (inactive)	9.66 µM (inactive)	17.6 µM (inactive)	13.7 µM (inactive)	17.2 µM (inactive)	24.3 µM (inactive)	16.2 µM (inactive)
O=C(COc1ccc(OCC(=O)N2C(=O)CS/C2=N\c2ccccc2)cc1)N1C(=O)CS/C1=N\c1ccccc1	19 µM (inactive)	15.3 µM (inactive)		48.5 µM (inactive)		19.5 µM (inactive)	29 µM (inactive)	20.5 µM (inactive)	4 µM (inactive)				32.8 µM (inactive)	20.6 µM (inactive)	30.3 µM (inactive)	56.9 µM (inactive)	14.4 µM (inactive)	12.7 µM (inactive)	5.9 µM (inactive)	26.2 µM (inactive)
CCCCC(=O)OCC(=O)[C@]1(O)Cc2c(O)c3c(c(O)c2[C@@H](OC2CC(NC(=O)C(F)(F)F)C(O)C(C)O2)C1)C(=O)c1c(OC)cccc1C3=O (stereo partly specified)		0.787 µM (active)	0.183 µM (active)	0.345 µM (active)	0.135 µM (active)	0.351 µM (active)	0.0214 µM (active)	1.11 µM (active)	0.711 µM (active)	0.163 µM (active)	1.73 µM (inactive)	0.387 µM (active)	2.43 µM (inactive)	0.203 µM (active)	0.82 µM (active)	2.47 µM (inactive)	0.74 µM (active)	1.52 µM (inactive)	0.337 µM (active)	0.376 µM (active)
C=C(CO)[C@H]1Oc2ccc(C(C)=O)cc2[C@@H]1O	> 100 µM (inactive)	> 100 µM (inactive)	> 100 µM (inactive)	> 100 µM (inactive)	> 100 µM (inactive)	> 100 µM (inactive)	> 100 µM (inactive)	> 100 µM (inactive)	53.3 µM (inactive)	> 100 µM (inactive)	77.8 µM (inactive)	> 100 µM (inactive)	> 100 µM (inactive)	> 100 µM (inactive)	> 100 µM (inactive)	> 100 µM (inactive)	> 100 µM (inactive)	> 100 µM (inactive)	67.9 µM (inactive)	
CCSc1nc(-c2cccs2)nc2ccc(I)cc12	13.1 µM (inactive)	72.8 µM (inactive)	> 100 µM (inactive)		> 100 µM (inactive)	> 100 µM (inactive)	> 100 µM (inactive)	> 100 µM (inactive)		> 100 µM (inactive)		> 100 µM (inactive)	46.9 µM (inactive)	> 100 µM (inactive)	> 100 µM (inactive)	39.6 µM (inactive)	> 100 µM (inactive)	> 100 µM (inactive)	> 100 µM (inactive)	
CN(C)c1ccc(NN=C2SC(=N\c3ccccc3)/C(=N/c3ccccc3)S2)cc1		18.2 µM (inactive)	> 100 µM (inactive)	> 100 µM (inactive)	5.2 µM (inactive)	12.1 µM (inactive)	13 µM (inactive)	37.4 µM (inactive)	2.38 µM (inactive)	22.1 µM (inactive)	57.4 µM (inactive)	53.7 µM (inactive)	12.8 µM (inactive)	76.4 µM (inactive)	10 µM (inactive)	> 100 µM (inactive)	15.5 µM (inactive)	70.5 µM (inactive)		22.8 µM (inactive)
COc1cc(OC)c2c(c1)C(=O)C(CC(C)O)=CC2=O (stereo unspecified)		19.5 µM (inactive)	19.4 µM (inactive)	18 µM (inactive)	4.22 µM (inactive)	19.7 µM (inactive)	23.6 µM (inactive)	18.6 µM (inactive)	22.7 µM (inactive)	5.97 µM (inactive)		18.4 µM (inactive)	12 µM (inactive)	20.1 µM (inactive)	12.7 µM (inactive)	19.9 µM (inactive)	19.1 µM (inactive)	18.4 µM (inactive)	14.9 µM (inactive)	11.1 µM (inactive)
Cc1cc(C)nc(NS(=O)(=O)c2ccc(Nc3nncc(=O)n3N)cc2)n1	16.7 µM (inactive)	36.2 µM (inactive)	18.7 µM (inactive)	55.7 µM (inactive)	3.62 µM (inactive)	14.4 µM (inactive)	30.1 µM (inactive)	35.4 µM (inactive)	19.2 µM (inactive)	14.2 µM (inactive)	29.6 µM (inactive)	31.6 µM (inactive)	23.1 µM (inactive)	16 µM (inactive)			16.9 µM (inactive)	18.2 µM (inactive)	11.1 µM (inactive)	
CC1CN(c2ccc(Cl)cc2)CC(C)OC(=O)O1 (stereo unspecified)		> 100 µM (inactive)	> 100 µM (inactive)	> 100 µM (inactive)	> 100 µM (inactive)	> 100 µM (inactive)	> 100 µM (inactive)	> 100 µM (inactive)	> 100 µM (inactive)	> 100 µM (inactive)		> 100 µM (inactive)	> 100 µM (inactive)	> 100 µM (inactive)	> 100 µM (inactive)	> 100 µM (inactive)	> 100 µM (inactive)	> 100 µM (inactive)	> 100 µM (inactive)	> 100 µM (inactive)
CCOc1ccccc1NC(=O)C(C#N)C1=C(Cl)C(=O)c2ccccc2C1=O (stereo unspecified)		1.72 µM (inactive)	6.04 µM (inactive)	26.2 µM (inactive)	0.867 µM (active)	2.14 µM (inactive)	1.79 µM (inactive)	1.98 µM (inactive)	1.57 µM (inactive)	0.74 µM (active)		2.12 µM (inactive)	1.5 µM (inactive)	2.76 µM (inactive)	1.97 µM (inactive)	2.22 µM (inactive)	2.29 µM (inactive)	2.14 µM (inactive)	1.58 µM (inactive)	2.05 µM (inactive)
O=C(/C=C/c1ccccc1O)c1ccccc1Cl		24.6 µM (inactive)	75.7 µM (inactive)	45.8 µM (inactive)	19.3 µM (inactive)	21.1 µM (inactive)	34 µM (inactive)	33 µM (inactive)	> 100 µM (inactive)	24.9 µM (inactive)		44.5 µM (inactive)	41.6 µM (inactive)	49.8 µM (inactive)	43.1 µM (inactive)	90.4 µM (inactive)	> 100 µM (inactive)	> 100 µM (inactive)	23.4 µM (inactive)	28.8 µM (inactive)
